Assay results as given in patent US4923882A, “Novel amine derivatives, salts thereof and an anti-ulcer agent containing the same” (Toyama Chemical Co., Ltd., priority 1982, dated 1990).
Where two headings read alike, the source gives them in different places.

How the values were obtained:
Indomethacin ulcer = assay: Anti-ulcer activity: Indomethacin ulcer; assay type: in vivo, Wistar strain rats; conditions: for ED50: 5 h; for Potency ratio: Cimetidine = 1
Experimental: Six Wistar strain rats (male, 200 to 250 g) per group were starved for 24 hours, after which each drug was orally administered, and after 30 minutes, Indomethacin was injected subcutaneously at a dose of 30 mg/kg. After 5 hours, each rat was killed, and the stomach was removed and fixed with 3% formalin, after which the lengths of ulcers formed in the stomach was measured under the binocular stereoscopic microscope (10×), and the sum total of the lengths was taken as the ulcer index. To a control group was administered 0.5% Tween 80 physiological saline. The inhibition percentage was determined from the following equation: [formula]

gastric acid secretion [1] = assay: Inhibitory effect on gastric acid secretion, pylorus ligation method (histamine); assay type: in vivo, Wistar strain rats; conditions: Rattus norvegicus, read-out: Inhibition percentage (gastric acid secretion)
Experimental: Five to six Wistar strain rats (male, 190 to 230 g) per group were starved for 35 hours, after which each drug was orally administered, and after 2 hours, the pylorus of each rat was ligated under ether anesthesia. […] After 3 hours, each rat was killed, after which the cardiac portion was ligated, and the stomach was removed. After 1 ml of distilled water was injected into the stomach, the gastric juice was collected by centrifugation and its volume was measured. The acidity of the gastric juice was measured by titrating 1 ml of the gastric juice with a 0.1N aqueous sodium hydroxide solution, taking pH 7.0 as the end-point. Physiological saline was administered to a control group.
The inhibition percentage of gastric acid secretion was determined from the following equation: [formula]

gastric acid secretion [2] = assay: Inhibitory effect on gastric acid secretion, perfused stomach preparation of anesthetized rat (histamine stimulated); assay type: in vivo, Wistar strain rats; conditions: intravenous; for Duration: time from complete inhibition until pH of perfusate became 4; for ED100: Rattus norvegicus, cumulative, histamine 30 μg/kg/min, read-out: Dose for complete inhibition
Experimental: (i) Perfused stomach preparation of anesthetized rat [according to M. N. Ghosh and H. O. Schild: Brit. J. Pharmacol. 13, 54 (1958)]
Wistar strain rats (male, 200 to 250 g) starved for 18 hours were anesthetized with urethane and then subjected to laparotomy, after which the forestomach region of the stomach of each rat was incised. The whole interior of the stomach was sufficiently washed with physiological saline, and the cut edges were sutured. A silicon tube was inserted into the stomach to a length of about 5 mm from the duodenum side and fixed. Subsequently, the stomach was perfused with physiological saline adjusted to a pH of about 10 with an aqueous sodium hydroxide solution at a constant rate (1 ml/min) through an oral sonde, and the change in pH of the perfusate which had flowed out through the silicone tube was continuously recorded. During the perfusion, histamine (30 μg/kg/min) was continuously injected, as an agent for stimulating gastric acid secretion, through the femoral vein at a rate of 0.3 ml/min. Each drug was intravenously administered when the acid secretion became almost constant (pH 3.3±0.2), and cumulatively administered when the inhibition of acid secretion at each dose reached a plateau.
The number of experiments was three for each dose.

[3] = test system: isolated guinea pig atrium; assay: Effect on isolated guinea pig atrium (histamine-induced heart rate); set-up: species or system Hartley guinea pig; conditions: for Potency ratio: Cimetidine = 1; for IC50: right atrium, 5×10^-6 M histamine, 30° C., read-out: ID50 (the source's name)
Experimental: Hartley guinea pig (male, 300 to 400 g) was killed by blood-letting, immediately after which the heart was isolated, and the right atrium was separated in a Krebs-Henseleit solution and used as a preparation. […] The preparation was trained in a bath fluid, and after the heart rate became constant, 5×10^-6 M of histamine was administered. After the heart rate became constant, each drug was administered cumulatively.
The inhibition percentage was determined from the following equation: [formula] HRmin : heart rate before the administration of histamine HRmax : heart rate after the administration of histamine
HRx : heart rate at the time of the administration of each drug.
The number of experiments were five for each dose.

Reserpine ulcer = assay: Anti-ulcer activity: Reserpine ulcer; assay type: in vivo, Wistar strain rats; conditions: oral
Experimental: An experiment was carried out according to the method of Adami et al. [E. Adami et al., Arch. int.
Ten Wistar strain rats (male, 180 to 200 g) per group were starved for 30 hours, after which each drug was orally administered, and after 1 hour, reserpine was injected subcutaneously at a dose of 10 mg/kg. After 18 hours, the stomach was removed and fixed with 3% formalin, and thereafter the lengths of the ulcers formed in the stomach were measured with callipers. The measured values were converted to the scores described below, and the sum total of the scores was taken as the ulcer index.
That is to say, 1 to 5 pin point ulcers are scored as 1, 6 or more pin point ulcers are scored as 2, ulcers of 1 mm or less in length are scored as 1, ulcers of 1 to 2 mm in length are scored as 2, ulcers of 2 to 4 mm in length are scored as 4, and ulcers of 4 mm or more in length are scored as 8.
(§1) To a control group was administered 0.5% Tween 80 physiological saline. The inhibition percentage was determined from the following equation: [formula]

[4] = test system: Stress ulcer induced by water-immersion; assay: Anti-ulcer activity: Stress ulcer induced by water-immersion; assay type: in vivo, Wistar rats; conditions: for ED50: Rattus norvegicus, 15 h; for Potency ratio: Cimetidine = 1
Experimental: (iii) Stress ulcer induced by water-immersion
An experiment was carried out according to the method of Takagi et al. [K. Takagi et al., Jap.
Six Wistar rats (male, 230 to 280 g) per group were starved for 24 hours, after which each drug was orally administered. After 30 minutes, the rats were placed in stress cage, immersed in water at 23° C. to the depth of xiphoid, and allowed to stand therein for 15 hours. Thereafter, the stomach of each rat was removed and then fixed with 3% formalin, after which the areas of the ulcers formed were measured under the binocular stereoscopic microscope (10×), and the sum total of the areas was taken as the ulcer index. To a control group was administered 0.5% Tween 80 physiological saline.
The inhibition percentage was determined from the following equation: [formula]

[5] = test system: Mepirizole-induced duodenal ulcer; assay: Anti-ulcer activity: Mepirizole-induced duodenal ulcer; assay type: in vivo, Wistar strain rats; conditions: for rats died: in mepirizole test; for ED50: Rattus norvegicus, 18 h; for Potency ratio: Cimetidine = 1
Experimental: (ii) Mepirizole-induced duodenal ulcer
A test was carried out according to the method of Okabe et al. [S. Okabe et al., Gastrcenterology, 80, 1241 (1981)].
Six Wistar strain rats (male, 200 to 250 g) per group were starved for 24 hours, after which each drug was orally administered, and after 30 minutes, mepirizole was injected subcutaneously at a dose of 200 mg/kg. After 18 hours, the stomach and duodenum were removed and fixed with 3% formalin, after which the areas and depths of the ulcers formed in the duodenum were measured under the binocular stereoscopic microscope (10×). The scores were given in 7 grades depending on the areas and depths of the ulcers, and the sum total of the scores was taken as the ulcer index. The scores were given as follows:
That is to say, the score is 0 at an ulcer area of 0 to 0.2 mm^2, 1 at 0.2 to 1.0 mm^2, 2 at 1 to 3 mm^2, 3 at 3 to 6 mm^2, 4 at 6 to 10 mm^2,5 at 10 mm^2 or more, the ulcer in the condition immediately before perforation is scored as 6, and the ulcer which had caused perforation is scored as 7.
as §1

[6] = Rattus norvegicus, po, read-out: Inhibition percentage
[7] = Rattus norvegicus, oral, Indomethacin ulcer, read-out: ID50 (the source's name)
[8] = Rattus norvegicus, 10 mg/kg, oral, read-out: Inhibition percentage
[9] = oral, water-immersion stress ulcer, read-out: ID50 (the source's name)
[10] = oral, mepirizole-induced duodenal ulcer, read-out: ID50 (the source's name)
[11] = Rattus norvegicus, oral, read-out: Inhibition percentage

SMILES	Duration (gastric acid secretion [2]) [min]	Potency ratio [3]	IC50 [3] [nM]	Inhibition percentage ([4]; 10 mg/kg, oral) [%]	Potency ratio (Indomethacin ulcer)	ED50 (Indomethacin ulcer; [7]) [mg/kg]	inhibition in vivo at 10 mg/kg (Indomethacin ulcer; [8]) [%]	inhibition in vivo at 3 mg/kg (gastric acid secretion [1]; oral, histamine 25 mg/kg s.c.) [%]	ED100 (gastric acid secretion [2]) [mg/kg]	Inhibition percentage ([4]; 3 mg/kg, oral) [%]	Potency ratio [4]	ED50 [4, 9] [mg/kg]	Potency ratio [5]	ED50 [5, 10] [mg/kg]	other results
CN/C(=N/CCSCc1nc[nH]c1C)NC#N [Cimetidine, reference compound]	16	1	3350	22											ED50 (Indomethacin ulcer; Rattus norvegicus, po, read-out: ID50): 27.5 mg/kg; inhibition in vivo at 10 mg/kg (Indomethacin ulcer; [6]): 18%; inhibition in vivo at 30 mg/kg (Indomethacin ulcer; [6]): 50%; inhibition in vivo at 100 mg/kg (Indomethacin ulcer; [6]): 97%; inhibition in vivo at 10 mg/kg (gastric acid secretion [1]; po): 39%; inhibition in vivo at 30 mg/kg (gastric acid secretion [1]; po): 60%; inhibition in vivo at 90 mg/kg (gastric acid secretion [1]; po): 97%; Inhibition percentage (Reserpine ulcer; 100 mg/kg): 9.7%; Inhibition percentage ([4]; 30 mg/kg, oral): 94%; ED50 ([4]; po, read-out: ID50): 15.5 mg/kg; Inhibition percentage ([5]; 100 mg/kg, oral): 43%; rats died ([5]; 100 mg/kg, oral): Two of six rats died; Inhibition percentage ([5]; 300 mg/kg, oral): 59%; rats died ([5]; 300 mg/kg, oral): Four of six rats died; ED50 ([5]; po, read-out: ID50): 162 mg/kg
CNC(=C[N+](=O)[O-])NCCSCc1ccc(CN(C)C)o1 [Ranitidine, reference compound]	92			80	1.8	15.5	18	17	0.5	7	2.4	6.4	5.1	32	inhibition in vivo at 30 mg/kg (Indomethacin ulcer; Rattus norvegicus, 30 mg/kg, oral, read-out: Inhibition percentage): 98%; inhibition in vivo at 10 mg/kg (gastric acid secretion [1]; 10 mg/kg, oral, histamine 25 mg/kg s.c.): 56%; inhibition in vivo at 30 mg/kg (gastric acid secretion [1]; 30 mg/kg, oral, histamine 25 mg/kg s.c.): 91%; Inhibition percentage (Reserpine ulcer; 30 mg/kg): 33%; Inhibition percentage (Reserpine ulcer; 100 mg/kg): 40%; Inhibition percentage ([5]; 30 mg/kg, oral): 49%; Inhibition percentage ([5]; 100 mg/kg, oral): 78%
CN(C)Cc1ccc(CSCCNC(=C[N+](=O)[O-])NCC(O)c2ccc(O)cc2)o1 (stereo not shown) [compound 3, N-{2-[[5-(dimethylamino)methyl-2-furyl]methylthio]ethyl}-N'-[2-hydroxy-2-(4-hydroxyphenyl)ethyl]-2-nitro-1,1-ethenediamine]	155	14.7	228	83	8.1	3.4	71		0.1	73	9.0	1.72	55.9	2.9	inhibition in vivo at 1 mg/kg (Indomethacin ulcer; [11]): 20%; inhibition in vivo at 3 mg/kg (Indomethacin ulcer; [11]): 51%; Inhibition percentage ([4]; 1 mg/kg, oral): 12%; Inhibition percentage ([5]; 1 mg/kg, oral): 12%; Inhibition percentage ([5]; 3 mg/kg, oral): 49%; Inhibition percentage ([5]; 10 mg/kg, oral): 97%
CN(C)Cc1ccc(CSCCNC(=C[N+](=O)[O-])NCC(O)c2ccccc2F)o1 (stereo not shown) [compound 4, N-{2-[[5-(dimethylamino)methyl-2-furyl]methylthio]ethyl}-N'-[2-(2-fluorophenyl)-2-hydroxyethyl]-2-nitro-1,1-ethenediamine]	220	14.9	225					75	0.04						
O=[N+]([O-])C=C(NCCCOc1cccc(CN2CCCCC2)c1)NCC(O)c1ccc(F)cc1 (stereo not shown) [compound 15, N-[2-(4-fluorophenyl)-2-hydroxyethyl]-2-nitro-N'-[3-(3-piperidinomethylphenoxy)propyl]-1,1-ethenediamine]	180	15.4	218	83	68.8	0.4	98		0.06	69	11.5	1.35	36.0	4.5	inhibition in vivo at 0.3 mg/kg (Indomethacin ulcer; Rattus norvegicus, 0.3 mg/kg, oral, read-out: Inhibition percentage): 37%; inhibition in vivo at 1 mg/kg (Indomethacin ulcer; [11]): 88%; inhibition in vivo at 3 mg/kg (Indomethacin ulcer; [11]): 92%; inhibition in vivo at 1 mg/kg (gastric acid secretion [1]; oral, histamine 25 mg/kg s.c.): 77%; Inhibition percentage ([4]; 1 mg/kg, oral): 42%; Inhibition percentage ([5]; 1 mg/kg, oral): 2%; Inhibition percentage ([5]; 3 mg/kg, oral): 29%; Inhibition percentage ([5]; 10 mg/kg, oral): 93%
O=[N+]([O-])C=C(NCCCOc1cccc(CN2CCCCC2)c1)NCC(O)c1ccc2c(c1)OCO2 (stereo not shown) [compound 17, N-[2-hydroxy-2-(3,4-methylenedioxyphenyl)ethyl]-2-nitro-N'-[3-(3-piperidinomethylphenoxy)propyl]-1,1-ethenediamine]	> 280	15.4	218					70	0.15						
CCc1ccc(C(O)CNC(=C[N+](=O)[O-])NCCSCc2cc(C)c(CN(C)C)s2)cc1 (stereo not shown) [compound 42, N-{2-[[5-(dimethylamino)methyl-4-methyl-2-thienyl]methylthio]ethyl}-N'-[2-(4-ethylphenyl)-2-hydroxyethyl]-2-nitro-1,1-ethenediamine]		14.1	237												inhibition in vivo at 1 mg/kg (gastric acid secretion [1]; oral, histamine 25 mg/kg s.c.): 57%
